Laboratory results as given in US20250223560A1, “NOX4 INHIBITOR COMPOSITIONS AND METHODS FOR REGENERATION OF DYSTROPHIC MUSCLE” (FULCRUM THERAPEUTICS, INC., priority 2022, published 2025).
Read-outs that look alike come from different tables or passages of the source.

Legend:
[1] = as described; cited from earlier work
[2] = tested on: Bone Marrow Derived Mesenchymal Stem Cells, human (BM-MSC); myofibroblast content; assay: Myofibroblast reduction phenotype in TGF-beta-1 fibrogenic differentiation culture (high-content imaging); format: cell-based
Procedure: (§1) Bone Marrow Derived Mesenchymal Stem Cells, human (BM-MSC, ATCC PCS-500-012) were cultured in medium composed of Mesenchymal Stem Cell Basal Medium foe Adipose, Umbilcal and Bone Marrow-derived MSCs (ATCC PCS-400030 and Mesenchymal Stem Cell Growth for Bone Marrow-derived MSCs (ATCC PCS-500-041). Cells were seeded at a density of 15,000 cells/well in a 96-well format.
(§2) To induce fibrogenic differentiation BM-MSCs were cultured in a medium composed by Dulbecco's Modified Eagle Medium, 2% horse serum (HS) (Sigma H1270) and 5-10 ng/ml TGF-beta-1 (PreproTech 100-21). Cells were cultured in basal media for 2 days before being switched to fibrogenic differentiation media for 5 days, after which they were taken down for downstream assays. Compound treatment was added when media was switched to fibrogenic differentiation media, cells were treated with 0.1% DMSO if not receiving compound.
(§3) Cells were fixed in 4% PFA for 10 min at RT. Fixed cells were washed three times in 1×PBS and incubated in permeabilization solution (0.5% Triton X-100 in 1×PBS) for 10 min. Unspecific binding were saturated by incubating samples in blocking solution (5% donkey serum in 1×PBS) for 1 h. The cells were incubated at RT for 1 hour with gentle shaking in the presence of primary antibody against, alpha-smooth muscle actin (1:1000, Sigma™ A5228). The cells were washed three times with 0.05% Tween-20 in 1×PBS and incubated, for 1 hour at RT, with host-specific secondary antibodies in addition to counterstaining for Alexa Fluor Plus 750 Phalloidin (1:2000, Invitrogen™, A30105) and DAPI (1:2000). Primary and secondary antibodies were diluted according to the manufacturer's recommendations in blocking solution+0.1% Triton X-100. Finally, the cells were washed three times with 0.05% Tween-20 in 1×PBS, washed twice with 1×PBS and stored at 4° C. Images were acquired on a Thermo Scientific™ CellInsight™ CX7LED high content analysis (HCA) imaging instrument using a 10× objective. Nine fields per well were captured for quantification.
Columbus™ software (version 2.9.1, Perkin Elmer®) was used for analysis of acquired images. A custom analysis pipeline was constructed to quantify the percentage of myofibroblasts within the well. First, nuclei were segmented using “Method B” and intensity and morphology properties were calculated using standard settings. Second, viable nuclei were identified by gating on nuclei intensity, area, and roundness of the segmented objects. Next, a region of interest was then defined around the selected viable nuclei by expanding the outer boarder by […]. STAR morphology and SER texture properties were calculated within the region of interest for the alpha-smooth muscle actin and phalloidin channels using the following parameters: profile width=4 px, scale=1 px, Kernel normalization. The calculated morphology and texture properties were used to train a linear classifier consisting of two classes, myofibroblasts and mesenchymal stem cells, by selecting >100 objects in each negative control (DMSO) and positive control (fibrogenic differentiation media) conditions. The linear classifier was then applied to the untrained test wells using a batch analysis to calculate the percentage of myofibroblasts within each image using a formula output (myofibroblasts:number of objects/viable nuclei:number of objects)*100. Results were averaged across the nine fields imaged per well.
The initial six NOX4 inhibitors were assessed in replicate experiments for both potency of myofibroblast reducing activity and an associated IC50 for the myofibroblast reduction phenotype was determined (Table 1).

[3] = tested on: mesenchymal stem cells; assay: Phalloidin (F-actin) / alpha-SMA staining of treated mesenchymal stem cells; format: cell-based, human; settings: 1 μM
Procedure: as §1, §2, §3

Which results are given for `CN(C)c1cccc(-c2c3c(=O)n(-c4ccccc4Cl)[nH]c3cc(=O)n2C)c1` [FTX1620, Setanaxib]?
oral bioavailability [1]: orally bioavailable; IC50 ([2]; Homo sapiens, BMMSC, first experiment, read-out: IC50 Phenotype (myofibroblast reduction)): 0.0773 µM; IC50 ([2]; Homo sapiens, BMMSC, replicate experiment, read-out: IC50 Phenotype Replicate): 0.126 µM; IC50 ([2]; replicate experiment, read-out: IC50 Phenotype Replicate): 0.126 µM; reduction of myofibroblast content (concentration-response) ([2]; treated cells in culture): reduced the myofibroblast content of treated cells in a dose-responsive manner; phalloidin (F-actin) staining [3]: significant phalloidin staining; α-SMA immunofluorescence and phalloidin (F-actin) staining ([3]; FIG. 15): exhibited both α-SMA immunofluorescence and phalloidin (F-actin) staining
